Measurements from patent US20260022142A1, “MACROCYCLIC IMMUNOMODULATORS” (Bristol-Myers Squibb Company, priority 2022, published 2026).
Numbered stars: 1 amine (or outer) side, 2 acyl side, 3 side chain; on linkers, the order of the positions; unused ones are H or OH. Bridge positions count the residues as written; N and C are the ends. Square brackets hold non-standard residues; d marks the D form. Peptide text beside a SMILES is read from it. * marks the point of attachment. ξ: configuration not given here. Bip = N[C@@H](Cc1ccc(-c2ccccc2)cc1)C(=O)O; Phe(3-Me) = Cc1cccc(C[C@H](N)C(=O)O)c1; Val(3-OH) = CC(C)(O)[C@H](N)C(=O)O; X12 = CC(N)[C@H](N[*:1])C(=O)[*:2]; Cha = N[C@@H](CC1CCCCC1)C(=O)O; Cit = NC(=O)NCCC[C@H](N)C(=O)O; Thr(3ξ) = CC(O)[C@H](N)C(=O)O; Tle = CC(C)(C)[C@H](N)C(=O)O; X20 = CN(CCCCCCCCCCC(=O)O)*; Carboxymethyl = O=C(O)C*; Orn = NCCC[C@H](N)C(=O)O; Aun = NCCCCCCCCCCC(=O)O; Dab = NCC[C@H](N)C(=O)O; Dap = NC[C@H](N)C(=O)O; AEEA = NCCOCCOCC(=O)O; Piv = CC(C)(C)C(=O)*

Target: T1, PD-1/PD-L1 interaction (PE-labeled human PD-L1-Ig binding to Jurkat cell line over-expressing human PD-1) (Homo sapiens, UniProt Q15116)
T1 construct: expressed in transfected cells; host or cells: Jurkat
Experiment: Jurkat-PD-1 Cell Binding High-Content Screening Assay (CBA)
Type: cell-based
Settings: Jurkat cell line over-expressing human PD-1; PE-labeled PD-L1-Ig 20 nM final; read-out: Jurkat hPD1-PDL1 IC50
Outline: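 Binding of fluorescent PD-L1-Ig (phycoerythrin on Ig tag, 20 nM final, 1 h) measured by high-content imaging of fixed, Hoechst-counterstained Jurkat-hPD-1 cells. Compound added 2 h at 37° C beforehand, in DMEM with 10% fetal calf serum.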

T1 sequence (Q15116 25-288): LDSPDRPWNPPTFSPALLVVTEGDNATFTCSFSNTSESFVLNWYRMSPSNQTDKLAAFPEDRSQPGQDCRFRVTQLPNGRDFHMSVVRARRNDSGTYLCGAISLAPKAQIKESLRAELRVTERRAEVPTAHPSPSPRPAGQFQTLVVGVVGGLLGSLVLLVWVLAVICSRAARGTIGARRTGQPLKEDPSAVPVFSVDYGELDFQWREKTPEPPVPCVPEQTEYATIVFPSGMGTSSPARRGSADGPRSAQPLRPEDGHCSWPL

An IC50 of 136 nM was found for Cc1cccc(C[C@@H]2NC(=O)[C@H](CC(=O)O)NC(=O)[C@H](Cc3ccc(OCC(=O)O)cc3)NC(=O)[C@H](Cc3ccc(OCC(=O)O)cc3)NC(=O)CSC[C@@H](C(=O)NCCOCCOCC(=O)N(C)CCCCCCCCCCC(=O)O)NC(=O)[C@H](C(C)O)NC(=O)[C@H](C(C)C)NC(=O)[C@H](CC3CCCCC3)NC(=O)[C@H](CCN)NC(=O)[C@@H](CC(C)C)NC(=O)[C@H](CCCN)NC(=O)[C@H](CCCNC(N)=O)NC(=O)[C@H](Cc3ccc(-c4ccccc4)cc3)NC(=O)[C@H](C(C)C)NC2=O)c1 (stereo partly drawn) [Compound 3509] ({CH2CO}-Y(Carboxymethyl)Y(Carboxymethyl)D[Phe(3-Me)]V[Bip][Cit][Orn][dL][Dab][Cha]V[Thr(3ξ)]C[AEEA]-X20; thioether N-14) in this work.
An IC50 of 55.3 nM was found for Cc1cccc(C[C@@H]2NC(=O)[C@H](CC(=O)O)NC(=O)[C@H](Cc3ccc(OCC(=O)O)cc3)NC(=O)[C@H](CCCNC(=N)N)NC(=O)CSC[C@@H](C(=O)N[C@@H](CNC(=O)C(C)(C)C)C(=O)NCCCCCCCCCCC(=O)O)NC(=O)[C@H](C(C)O)NC(=O)[C@H](C(C)C)NC(=O)[C@H](CC3CCCCC3)NC(=O)[C@H](CCN)NC(=O)[C@@H](CC(C)C)NC(=O)[C@H](CCCN)NC(=O)[C@H](CCCNC(N)=O)NC(=O)[C@H](Cc3ccc(-c4ccccc4)cc3)NC(=O)[C@H](C(C)C)NC2=O)c1 (stereo partly drawn) [Compound 3510] ({CH2CO}-RY(Carboxymethyl)D[Phe(3-Me)]V[Bip][Cit][Orn][dL][Dab][Cha]V[Thr(3ξ)]C[Dap](Piv)[Aun]-OH; thioether N-14) in this work.
An IC50 of 21.7 nM was found for Cc1cccc(C[C@@H]2NC(=O)[C@H](CC(=O)O)NC(=O)[C@H](Cc3ccc(OCC(=O)O)cc3)NC(=O)[C@H](CCNC(=O)C(C)(C)C)NC(=O)CSC[C@@H](C(=O)N[C@@H](CCN)C(=O)NCCCCCCCCCCC(=O)O)NC(=O)[C@H](C(C)O)NC(=O)[C@H](C(C)C)NC(=O)[C@H](CC3CCCCC3)NC(=O)[C@H](CCN)NC(=O)[C@@H](CC(C)C)NC(=O)[C@H](CCCN)NC(=O)[C@H](CCCNC(N)=O)NC(=O)[C@H](Cc3ccc(-c4ccccc4)cc3)NC(=O)[C@H](C(C)C)NC2=O)c1 (stereo partly drawn) [Compound 3511] ({CH2CO}-[Dab](Piv)Y(Carboxymethyl)D[Phe(3-Me)]V[Bip][Cit][Orn][dL][Dab][Cha]V[Thr(3ξ)]C[Dab][Aun]-OH; thioether N-14) in this work.
An IC50 of 18.2 nM was found for Cc1cccc(C[C@@H]2NC(=O)[C@H](CC(=O)O)NC(=O)[C@H](Cc3ccc(OCC(=O)O)cc3)NC(=O)[C@H](CCCNC(=N)N)NC(=O)CSC[C@@H](C(=O)N[C@@H](CCN)C(=O)NCCCCCCCCCCC(=O)O)NC(=O)[C@H](C(C)O)NC(=O)[C@H](C(C)(C)O)NC(=O)[C@H](CC3CCCCC3)NC(=O)[C@H](CCN)NC(=O)[C@@H](CC(C)C)NC(=O)[C@H](CCCN)NC(=O)[C@H](CCCNC(N)=O)NC(=O)[C@H](Cc3ccc(-c4ccccc4)cc3)NC(=O)[C@H](C(C)C)NC2=O)c1 (stereo partly drawn) [Compound 3512] ({CH2CO}-RY(Carboxymethyl)D[Phe(3-Me)]V[Bip][Cit][Orn][dL][Dab][Cha][Val(3-OH)][Thr(3ξ)]C[Dab][Aun]-OH; thioether N-14) in this work.
An IC50 of 10.8 nM was found for Cc1cccc(C[C@@H]2NC(=O)[C@H](CC(=O)O)NC(=O)[C@H](Cc3ccc(OCC(=O)O)cc3)NC(=O)[C@H](CCCNC(=N)N)NC(=O)CSC[C@@H](C(=O)N[C@@H](CCN)C(=O)NCCCCCCCCCCC(=O)O)NC(=O)[C@H](C(C)O)NC(=O)[C@H](C(C)(C)O)NC(=O)[C@H](CC3CCCCC3)NC(=O)[C@H](CCN)NC(=O)[C@@H](CC(C)C)NC(=O)[C@H](CCCN)NC(=O)[C@H](Cc3ccc(OCC(=O)O)cc3)NC(=O)[C@H](Cc3ccc(-c4ccccc4)cc3)NC(=O)[C@H](Cc3ccc(OCC(=O)O)cc3)NC2=O)c1 (stereo partly drawn) [Compound 3513] ({CH2CO}-RY(Carboxymethyl)D[Phe(3-Me)]Y(Carboxymethyl)[Bip]Y(Carboxymethyl)[Orn][dL][Dab][Cha][Val(3-OH)][Thr(3ξ)]C[Dab][Aun]-OH; thioether N-14) in this work.
An IC50 of 169 nM was found for Cc1cccc(C[C@@H]2NC(=O)[C@H](CC(=O)O)NC(=O)[C@H](Cc3ccc(OCC(=O)O)cc3)NC(=O)[C@H](CCCNC(=N)N)NC(=O)CSC[C@@H](C(=O)N[C@H](CC(N)=O)C(=O)NCCCCCCCCCCC(=O)O)NC(=O)[C@H](C(C)O)NC(=O)[C@H](CO)NC(=O)[C@H](CC3CCCCC3)NC(=O)[C@H](CCN)NC(=O)[C@@H](CC(C)C)NC(=O)[C@H](CCCN)NC(=O)[C@H](Cc3ccc(OCC(=O)O)cc3)NC(=O)[C@H](Cc3ccc(-c4ccccc4)cc3)NC(=O)[C@H](Cc3ccc(OCC(=O)O)cc3)NC2=O)c1 (stereo partly drawn) [Compound 3515] ({CH2CO}-RY(Carboxymethyl)D[Phe(3-Me)]Y(Carboxymethyl)[Bip]Y(Carboxymethyl)[Orn][dL][Dab][Cha]S[Thr(3ξ)]C[dN][Aun]-OH; thioether N-14) in this work.
An IC50 of 10.3 nM was found for Cc1cccc(C[C@@H]2NC(=O)[C@H](CC(=O)O)NC(=O)[C@H](Cc3ccc(OCC(=O)O)cc3)NC(=O)[C@H](CCCNC(=N)N)NC(=O)CSC[C@@H](C(=O)N[C@@H](CCN)C(=O)NCCCCCCCCCCC(=O)O)NC(=O)[C@H](CCC(N)=O)NC(=O)[C@H](CO)NC(=O)[C@H](CC3CCCCC3)NC(=O)[C@H](CCN)NC(=O)[C@@H](CC(C)C)NC(=O)[C@H](CCCN)NC(=O)[C@H](Cc3ccc(OCC(=O)O)cc3)NC(=O)[C@H](Cc3ccc(-c4ccccc4)cc3)NC(=O)[C@H](Cc3ccc(OCC(=O)O)cc3)NC2=O)c1 [Compound 3516] ({CH2CO}-RY(Carboxymethyl)D[Phe(3-Me)]Y(Carboxymethyl)[Bip]Y(Carboxymethyl)[Orn][dL][Dab][Cha]SQC[Dab][Aun]-OH; thioether N-14) in this work.
An IC50 of 27.9 nM was found for Cc1cccc(C[C@@H]2NC(=O)[C@H](CC(=O)O)NC(=O)[C@H](Cc3ccc(OCC(=O)O)cc3)NC(=O)[C@H](CCNC(=O)C(C)(C)C)NC(=O)CSC[C@@H](C(=O)N[C@@H](CCN)C(=O)NCCCCCCCCCCC(=O)O)NC(=O)[C@H](C(C)O)NC(=O)[C@H](C(C)(C)C)NC(=O)[C@H](CC3CCCCC3)NC(=O)[C@H](CCN)NC(=O)[C@@H](CC(C)C)NC(=O)[C@H](CCCN)NC(=O)[C@H](Cc3ccc(OCC(=O)O)cc3)NC(=O)[C@H](Cc3ccc(-c4ccccc4)cc3)NC(=O)[C@H](Cc3ccc(O)cc3)NC2=O)c1 (stereo partly drawn) [Compound 3517] ({CH2CO}-[Dab](Piv)Y(Carboxymethyl)D[Phe(3-Me)]Y[Bip]Y(Carboxymethyl)[Orn][dL][Dab][Cha][Tle][Thr(3ξ)]C[Dab][Aun]-OH; thioether N-14) in this work.
An IC50 of 35.7 nM was found for Cc1cccc(C[C@@H]2NC(=O)[C@H](CC(=O)O)NC(=O)[C@H](Cc3ccc(OCC(=O)O)cc3)NC(=O)[C@H](CNC(=O)C(C)(C)C)NC(=O)CSC[C@@H](C(=O)N[C@@H](CC(N)=O)C(=O)NCCCCCCCCCCC(=O)O)NC(=O)[C@H](C(C)O)NC(=O)[C@H](C(C)(C)C)NC(=O)[C@H](CC3CCCCC3)NC(=O)[C@H](CCN)NC(=O)[C@@H](CC(C)C)NC(=O)[C@H](CCCN)NC(=O)[C@H](Cc3ccc(OCC(=O)O)cc3)NC(=O)[C@H](Cc3ccc(-c4ccccc4)cc3)NC(=O)[C@H](Cc3ccc(O)cc3)NC2=O)c1 (stereo partly drawn) [Compound 3518] ({CH2CO}-[Dap](Piv)Y(Carboxymethyl)D[Phe(3-Me)]Y[Bip]Y(Carboxymethyl)[Orn][dL][Dab][Cha][Tle][Thr(3ξ)]CN[Aun]-OH; thioether N-14) in this work.
An IC50 of 10.4 nM was found for Cc1cccc(C[C@@H]2NC(=O)[C@H](CC(=O)O)NC(=O)[C@H](Cc3ccc(OCC(=O)O)cc3)NC(=O)[C@H](C(C)N)NC(=O)CSC[C@@H](C(=O)N[C@@H](CCN)C(=O)NCCCCCCCCCCC(=O)O)NC(=O)[C@H](CCC(N)=O)NC(=O)[C@H](C(C)O)NC(=O)[C@H](CC3CCCCC3)NC(=O)[C@H](CCN)NC(=O)[C@@H](CC(C)C)NC(=O)[C@H](CCCN)NC(=O)[C@H](Cc3ccc(OCC(=O)O)cc3)NC(=O)[C@H](Cc3ccc(-c4ccccc4)cc3)NC(=O)[C@H](Cc3ccc(OCC(=O)O)cc3)NC2=O)c1 (stereo partly drawn) [Compound 3519] ({CH2CO}-[X12]Y(Carboxymethyl)D[Phe(3-Me)]Y(Carboxymethyl)[Bip]Y(Carboxymethyl)[Orn][dL][Dab][Cha][Thr(3ξ)]QC[Dab][Aun]-OH; thioether N-14) in this work.
An IC50 of 608 nM was found for Cc1cccc(C[C@@H]2NC(=O)[C@H](CC(=O)O)NC(=O)[C@H](Cc3ccc(OCC(=O)O)cc3)NC(=O)[C@H](C(C)O)NC(=O)CSC[C@@H](C(=O)N[C@H](CC(N)=O)C(=O)NCCCCCCCCCCC(=O)O)NC(=O)[C@H](C(C)(C)C)NC(=O)[C@H](CO)NC(=O)[C@H](CC3CCCCC3)NC(=O)[C@H](CCN)NC(=O)[C@@H](CC(C)C)NC(=O)[C@H](CCCN)NC(=O)[C@H](Cc3ccc(OCC(=O)O)cc3)NC(=O)[C@H](Cc3ccc(-c4ccccc4)cc3)NC(=O)[C@H](Cc3ccc(O)cc3)NC2=O)c1 (stereo partly drawn) [Compound 3520] ({CH2CO}-[Thr(3ξ)]Y(Carboxymethyl)D[Phe(3-Me)]Y[Bip]Y(Carboxymethyl)[Orn][dL][Dab][Cha]S[Tle]C[dN][Aun]-OH; thioether N-14) in this work.
An IC50 of 40.8 nM was found for Cc1cccc(C[C@@H]2NC(=O)[C@H](CC(=O)O)NC(=O)[C@H](Cc3ccc(OCC(=O)O)cc3)NC(=O)[C@H](CCCNC(=N)N)NC(=O)CSC[C@@H](C(=O)N[C@H](CC(N)=O)C(=O)NCCCCCCCCCCC(=O)O)NC(=O)[C@H](C(C)O)NC(=O)[C@H](C(C)O)NC(=O)[C@H](CC3CCCCC3)NC(=O)[C@H](CCN)NC(=O)[C@@H](CC(C)C)NC(=O)[C@H](CCCN)NC(=O)[C@H](CCCNC(N)=O)NC(=O)[C@H](Cc3ccc(-c4ccccc4)cc3)NC(=O)[C@H](C(C)C)NC2=O)c1 (stereo partly drawn) [Compound 3522] ({CH2CO}-RY(Carboxymethyl)D[Phe(3-Me)]V[Bip][Cit][Orn][dL][Dab][Cha][Thr(3ξ)][Thr(3ξ)]C[dN][Aun]-OH; thioether N-14) in this work.
